Assay [1] deals with KP1011 Klebsiella pneumoniae SHV-5. Put plainly: microbe, parasite or virus in culture. Type of assay: cell-based. The protocol: (§1) Next, ceftazidime potentiation activity of several cyclic boronic acid ester derivatives was tested using a larger panel of strains expressing β-lactamase hydrolyzing enzymes. Ceftazidime MICs were determined alone and in the presence of fixed concentrations of various cyclic boronic acid ester derivatives.

For assay [2], the system named is SA1000 Salmonella CMY-2. Kind of assay: Ceftazidime MIC with fixed concentration of BLI. Conditions: SA1000 CMY-2; for Ceftazidime MIC with cyclic boronic acid ester derivative: derivative at 10 μg/mL. Type of assay: cell-based. The method, then:
as §1

The subject of assay [3] is AB1057 Acinetobacter baumannii OXA-58. Kind of assay: Ceftazidime MIC with fixed concentration of BLI. Type of assay: cell-based. The conditions noted are these: AB1057 OXA-58; for Ceftazidime MIC with cyclic boronic acid ester derivative: derivative at 10 μg/mL. The method, then: as §1
Assay [4] has as its system ECL1003 Enterobacter cloacae Hyper AmpC expression. Put plainly: Ceftazidime MIC with fixed concentration of BLI. The assay is classed as cell-based. Conditions: for Ceftazidime MIC with cyclic boronic acid ester derivative: derivative at 10 μg/mL. The method, then: as §1
Assay [5] relates to KP1013 Klebsiella pneumoniae CMY-2. Put plainly: Ceftazidime MIC with fixed concentration of BLI. The assay is classed as cell-based. The conditions noted are these: KP1013 CMY-2; for Ceftazidime MIC with cyclic boronic acid ester derivative: derivative at 10 μg/mL. The method, then:
as §1

Assay [6] deals with AB1052 Acinetobacter baumannii OXA-24. Put plainly: Ceftazidime MIC with fixed concentration of BLI. Conditions: AB1052 OXA-24; for Ceftazidime MIC with cyclic boronic acid ester derivative: derivative at 10 μg/mL. Type of assay: cell-based. The method, then: as §1
Assay [7] deals with EC1011 Escherichia coli TEM-26. Kind of assay: Ceftazidime MIC with fixed concentration of BLI. Type of assay: cell-based. Conditions: EC1011 TEM-26; for Ceftazidime MIC with cyclic boronic acid ester derivative: derivative at 10 μg/mL. The protocol:
as §1

Assay [8] has as its system EC1016 Escherichia coli FOX-5. Kind of assay: Ceftazidime MIC with fixed concentration of BLI. Conditions: EC1016 FOX-5; for Ceftazidime MIC with cyclic boronic acid ester derivative: derivative at 10 μg/mL. Type of assay: cell-based. The protocol: as §1
Assay [9] has as its system KP1006 Klebsiella pneumoniae CTX-M2. Put plainly: Ceftazidime MIC with fixed concentration of BLI. Type of assay: cell-based. Conditions: for Ceftazidime MIC with cyclic boronic acid ester derivative: derivative at 10 μg/mL. The method, then:
as §1

The test system of assay [10] is KP1014 Klebsiella pneumoniae Vim-1. Put plainly: Ceftazidime MIC with fixed concentration of BLI. Type of assay: cell-based. Conditions: KP1014 Vim-1; for Ceftazidime MIC with cyclic boronic acid ester derivative: derivative at 10 μg/mL. The protocol:
as §1

Assay [11] has as its system CF1001 Citrobacter freundii Hyper AmpC expression. Kind of assay: Ceftazidime MIC with fixed concentration of BLI. The assay is classed as cell-based. Conditions: for Ceftazidime MIC with cyclic boronic acid ester derivative: derivative at 10 μg/mL. The method, then: as §1
Assay [12] has as its target KPC-2, lysate of KP1008 (Klebsiella pneumoniae, UniProt Q9F663). Kind of assay: Inhibition of ceftazidime hydrolysis by bacterial lysate.
Assay [13] addresses SHV-18, lysate of KP1012 (Klebsiella pneumoniae, UniProt P0AD64, E235K/G234A/R39S). Described as above.
The target of assay [14] is DHA-1, lysate of EC1014 (Escherichia coli, UniProt Q84AE0). The assay is described as above. Conditions: read-out: IC50 of inhibition of Ceftazidime hydrolysis; EC1014 DHA-1.
The target of assay [15] is SHV-5, lysate of ec308 (Escherichia coli, UniProt P0AD63, E235K/G234S). The assay is described as above.
In assay [16] the target is KPC-2, lysate of KP1004 (Klebsiella pneumoniae, UniProt Q9F663). Described as above.
The target of assay [17] is various β-lactamases (bacterial lysates) (Pseudomonas aeruginosa, UniProt P14489). Kind of assay: biochemical. Type of assay: biochemical. The conditions noted are these: AZT IC50 KP1007 OXA-10.
The target of assay [18] is various β-lactamases (bacterial lysates) (Klebsiella pneumoniae, UniProt Q9F663, H272Y). Put plainly: biochemical. Type of assay: biochemical.
The target of assay [19] is various β-lactamases (bacterial lysates) (Salmonella typhimurium, UniProt P0A1V8). Kind of assay: biochemical. Type of assay: biochemical. Conditions: AZT IC50 KPX1001 OXA-2.
Assay [20] concerns the target various β-lactamases (bacterial lysates) (Escherichia coli, UniProt A0A5R8T042). Put plainly: biochemical. Type of assay: biochemical. The conditions noted are these: read-out: AZT IC50 KP1009 CTX-M-15.
Assay [21] addresses various β-lactamases (bacterial lysates) (Klebsiella pneumoniae, UniProt Q9F663). Kind of assay: biochemical. Type of assay: biochemical. Conditions: aztreonam cleavage.
Assay [22] deals with various β-lactamases (bacterial lysates) (Escherichia coli, UniProt A0A649V088). Kind of assay: biochemical. The conditions noted are these: read-out: AZT IC50 KP1005 CTX-M-14. The assay is classed as biochemical.
Assay [23] has as its target SHV-2, lysate of ec306 (Escherichia coli, UniProt P0A9Z7). Kind of assay: Inhibition of ceftazidime hydrolysis by bacterial lysate.
Assay [24] concerns SM1000 Serratia marcescens SME-2. Kind of assay: Checkerboard assay, biapenem potentiation. The conditions noted are these: Biapenem MIC 8-fold; SM1000 SME-2 class A.
Assay [25] deals with GES-1, lysate of pa 1063 (Klebsiella pneumoniae, UniProt Q9KJY7). Put plainly: Inhibition of ceftazidime hydrolysis by bacterial lysate.
Assay [26] relates to AB1052 Acinetobacter baumannii OXA-24. Kind of assay: Checkerboard assay, biapenem potentiation. Conditions: Biapenem MIC 8-fold; AB1052 OXA-24 class D.
Assay [27] addresses OXA-10, lysate of KP1007 (Pseudomonas aeruginosa, UniProt P14489). Put plainly: Inhibition of ceftazidime hydrolysis by bacterial lysate.
For assay [28], the target named is CTX-M-14, lysate of KP1005 (Escherichia coli, UniProt Q9L5C7). The assay is described as above.
The target in assay [29] is SME-2, lysate of SM1000 (Serratia marcescens, UniProt P52682). Kind of assay: Inhibition of biapenem hydrolysis by bacterial lysate. The conditions noted are these: read-out: IC50 of inhibition of biapenem hydrolysis; SM1000 SME-2.
Where [30] appears, read: Klebsiella pneumoniae, read-out: Ceftazidime MIC Alone.
[31] abbreviates: Acinetobacter baumannii, read-out: Ceftazidime MIC Alone.
[32] abbreviates: Escherichia coli, read-out: Ceftazidime MIC Alone.
[33] abbreviates: lysate KP1004 KPC-2, read-out: AZT IC50 KP1004 KPC-2 (converted).
[34] abbreviates: lysate KP1008 KPC-2, read-out: AZT IC50 KP1008 KPC-2.

Like-named read-outs stand apart in the source and are kept apart here. Some results are limits rather than exact numbers.

Sequence of various β-lactamases (bacterial lysates) (Escherichia coli, UniProt A0A5R8T042) (A0A5R8T042 29-291): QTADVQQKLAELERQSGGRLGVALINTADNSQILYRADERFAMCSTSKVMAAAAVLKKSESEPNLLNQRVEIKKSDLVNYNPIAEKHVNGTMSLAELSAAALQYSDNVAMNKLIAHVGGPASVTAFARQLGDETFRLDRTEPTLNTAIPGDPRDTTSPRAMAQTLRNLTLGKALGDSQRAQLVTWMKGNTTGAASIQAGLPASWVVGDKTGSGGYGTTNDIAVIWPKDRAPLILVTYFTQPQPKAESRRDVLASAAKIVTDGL

For `CC(C)(O/N=C(\C(=O)N[C@@H]1C(=O)N2C(C(=O)[O-])=C(C[n+]3ccccc3)CS[C@H]12)c1csc(N)n1)C(=O)O` [Ceftazidime, reference compound], the MIC is 1 to 8 µg/mL in assay [1] (setting [30]); over 8 µg/mL in assay [2] (Salmonella, read-out: Ceftazidime MIC Alone); over 8 µg/mL in [3] (setting [31]); over 8 µg/mL in assay [4] (Enterobacter cloacae, read-out: Ceftazidime MIC Alone); over 8 µg/mL in assay [5] (setting [30]); over 8 µg/mL in assay [6] (setting [31]). Also, the MIC in [7] (setting [32]) was over 8 µg/mL; in [8] (setting [32]), over 8 µg/mL; in [9] (setting [30]), 1 to 8 µg/mL; in assay [10] (setting [30]), over 8 µg/mL; in [11] (Citrobacter freundii, read-out: Ceftazidime MIC Alone), over 8 µg/mL.
As to `CC(=O)N[C@H]1CCC(CC(=O)O)OB1O` (stereo partly drawn) [Compound 3, 2-((3R)-3-acetamido-2-hydroxy-1,2-oxaborinan-6-yl)acetic acid], the IC50 in assay [12] is 0.465 to 4.65 µM; in assay [13], over 4.65 µM; in assay [14], over 4.65 µM; in [15] it was over 4.65 µM; in assay [16] it was under 0.465 µM; in assay [17], over 9.3 µM. Also, the IC50 in [18] was under 2.33 µM; in assay [19] it was over 9.3 µM; in assay [20] it was over 9.3 µM; in assay [21] (setting [33]) it was under 2.33 µM; in assay [21] (setting [34]), 2.33 to 9.3 µM; in [22], under 2.33 µM. The IC50 in assay [23], in assay [25], in assay [27] and in assay [28] was over 4.65 µM in each case. The “Ceftazidime MIC with cyclic boronic acid ester derivative” value (from here on “Ceftazidime MIC”) in [1] (derivative at 10 μg/mL, KP1011 SHV-5) is recorded as “X (MIC of 1 μg/mL or less)”; in assay [2], “Z (MIC of greater than 8 μg/mL)”; in [3], “Z (MIC of greater than 8 μg/mL)”; in assay [4], “Z (MIC of greater than 8 μg/mL)”; in assay [5], “Z (MIC of greater than 8 μg/mL)”; in [6], “Z (MIC of greater than 8 μg/mL)”. The “Ceftazidime MIC” value in assay [7] is reported as “Z (MIC of greater than 8 μg/mL)”; in assay [8], “Z (MIC of greater than 8 μg/mL)”; in assay [9] it was “X (MIC of 1 μg/mL or less)”; in assay [10], “Z (MIC of greater than 8 μg/mL)”; in [11] it was “Z (MIC of greater than 8 μg/mL)”. Further, the figures for the MPC8 result in [24] and in assay [26] were “Y (MPC8 of 0.16 μg/mL to 1 μg/mL)” and “Z (MPC8 of greater than 1 μg/mL)”, respectively.
For `O=C(O)C[C@@H]1CC[C@H](NC(=O)Cc2cccs2)B(O)O1` [Compound 5, 2-((3R,6S)-2-hydroxy-3-(2-(thiophen-2-yl)acetamido)-1,2-oxaborinan-6-yl)acetic acid], the IC50 in assay [13] is 0.337 to 3.37 µM; in [29] it was under 0.337 µM; in assay [14], 0.337 to 3.37 µM; in [15], over 3.37 µM; in assay [17] it was over 6.73 µM; in [18] it was under 1.68 µM. The IC50 in [19] was under 1.68 µM; in assay [20], 1.68 to 6.73 µM; in assay [21] (setting [33]) it was under 1.68 µM; in assay [21] (setting [34]), under 1.68 µM; in assay [22], under 1.68 µM; in assay [23] it was 0.337 to 3.37 µM. The figures for the IC50 in assay [25], in assay [27] and in assay [28] were under 0.337 µM, 0.337 to 3.37 µM and under 0.337 µM, respectively. For the same compound, the MPC8 result in [24] was “Y (MPC8 of 0.16 μg/mL to 1 μg/mL)”; in assay [26], “Z (MPC8 of greater than 1 μg/mL)”. In addition, the “Ceftazidime MIC” value in assay [2] is recorded as “Y (MIC of greater than 1 μg/mL to 8 μg/mL)”; in assay [3] it was “Z (MIC of greater than 8 μg/mL)”; in [4] it was “Z (MIC of greater than 8 μg/mL)”; in assay [5] it was “Y (MIC of greater than 1 μg/mL to 8 μg/mL)”; in [6], “Z (MIC of greater than 8 μg/mL)”; in [7] it was “Z (MIC of greater than 8 μg/mL)”. In addition, the “Ceftazidime MIC” value in assay [8] is recorded as “Z (MIC of greater than 8 μg/mL)”; in assay [9], “X (MIC of 1 μg/mL or less)”; in [10], “Z (MIC of greater than 8 μg/mL)”; in assay [11], “Y (MIC of greater than 1 μg/mL to 8 μg/mL)”.
As to `Cl.N[C@H]1CCC(CC(=O)O)OB1O` (stereo partly drawn) [Compound 7, 2-((3R)-3-amino-2-hydroxy-1,2-oxaborinan-6-yl)acetic acid hydrochloride], the IC50 in assay [12], in assay [13], in assay [14], in assay [15], in assay [16] and in [23] was over 4.77 µM throughout. The IC50 in assay [25] is 0.477 to 4.77 µM; in [27], over 4.77 µM; in assay [28] it was over 4.77 µM. The “Ceftazidime MIC” value in assay [3] and in [7] was “Z (MIC of greater than 8 μg/mL)” in each case.

As a reminder, the IC50 is the point on the concentration scale where inhibition reaches its midpoint.

Values taken from patent US11090319B2, “Therapeutic uses of pharmaceutical compositions comprising cyclic boronic acid ester derivatives” (Melinta Subsidiary Corp., priority 2010, dated 2021).
